Literature values, collected in patent US20160022623A1, “COMPOSITION AND USE” (THE UNIVERSITY OF NOTTINGHAM, priority 2013, published 2016).

Tests used:
[1] = 24 weeks
[2] = compared to control (euglycaemic hyperinsulinaemia)
[3] = morning following the clamp, overnight fast

Compound: C[N+](C)(C)C[C@H](O)CC(=O)[O-] [L-carnitine]
- Decrease in insulin stimulated muscle PDC activation [2]: 30%
- Decrease in muscle lactate accumulation [2]: 40%
- Increase in skeletal muscle total carnitine content (intravenous infusion, 6 h clamp, at rest): 15%
- Increase in muscle glycogen content [3]: 30%
- Increase in muscle long-chain acyl-CoA content [3]: 40%
- Increase in muscle total carnitine content compared to carbohydrate feeding alone ([1]; 1.36 g L-carnitine with 80 g carbohydrate beverage twice daily): 30%
- Reduction in muscle glycogen utilisation ([1]; low intensity exercise (50% VO2max)): 50%
- Increase in muscle free carnitine availability ([1]; low intensity exercise (50% VO2max), vs Control): 80%
